Reference: patent US9499550B2 (BRISTOL-MYERS SQUIBB COMPANY, priority 2012, dated 2016)

Key:
[1] = tested on: HCV genotype 1a (H77 strain) replicon in HUH-7 cells; experiment: HCV replicon luciferase reporter assay, genotype 1a; type: cell-based; conditions: Hepatitis C virus, Huh-7, 72 h, HCV genotype 1a replicon luciferase, 3 days incubation, read-out: LE_1a (EC50, range)
Procedure, shortened: (§1)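 Replicon inhibition for both genotypes was measured as Renilla luciferase signal (EnduRen, 7.5 μM final, 2 h) after 3-day, 37° C exposure of replicon-bearing HUH-7 cells in 4% FCS DMEM, 0.5% DMSO. The 1b construct carries S1179I; the 1a H77 construct carries P1496L and S2204I. Twenty-point, 3-fold dilutions were fitted four-parametrically for EC50, and CC50 was taken from multiplexed Cell Titer-Blue.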

[2] = tested on: HCV genotype 1b (Con1) replicon in HUH-7 cells; experiment: HCV replicon luciferase reporter assay, genotype 1b; type: cell-based; conditions: Hepatitis C virus, Huh-7, 72 h, HCV genotype 1b replicon luciferase, 3 days incubation, read-out: LE_1b (EC50, range)
Procedure, shortened: as §1

Compound	EC50 [1]	EC50 [2]
CC[C@@H]1C[C@H](C)CC/C=C\[C@@H]2C[C@@]2(C(=O)NS(=O)(=O)C2CC2)NC(=O)[C@@H]2C[C@@H](Oc3ncc(OC)c4ccccc34)CN2C(=O)[C@H]1NC(=O)OC(C)(C)C(C)(F)F [Compound 5439, 3,3-difluoro-2-methylbutan-2-yl((2R,6S,7R,9R,13aS,14aR,16aS,Z)-14a-((cyclopropylsulfonyl)carbamoyl)-7-ethyl-2-((4-methoxyisoquinolin-1-yl)oxy)-9-methyl-5,16-dioxo-1,2,3,5,6,7,8,9,10,11,13a,14,14a,15,16,16a-hexadecahydrocyclopropa[e]pyrrolo[1,2-a][1,4]diazacyclopentadecin-6-yl)carbamate]	0.51 to 1 nM	0.1 to 0.5 nM
CC[C@@H]1C[C@H](C)CC/C=C\[C@@H]2C[C@@]2(C(=O)NS(=O)(=O)C2(CF)CC2)NC(=O)[C@@H]2C[C@@H](Oc3ncc(N4CCOCC4)c4ccccc34)CN2C(=O)[C@H]1NC(=O)OC(C)(C)C [Compound 5441, tert-butyl ((2R,6S,7R,9R,13aS,14aR,16aS,Z)-7-ethyl-14a-(((1-(fluoromethyl)cyclopropyl)sulfonyl)carbamoyl)-9-methyl-2-((4-morpholinoisoquinolin-1-yl)oxy)-5,16-dioxo-1,2,3,5,6,7,8,9,10,11,13a,14,14a,15,16,16a-hexadecahydrocyclopropa[e]pyrrolo[1,2-a][1,4]diazacyclopentadecin-6-yl)carbamate]	1.01 to 5 nM	1.01 to 5 nM
C[C@@H]1CC/C=C\[C@@H]2C[C@@]2(C(=O)NS(=O)(=O)C2(CF)CC2)NC(=O)[C@@H]2C[C@@H](Oc3ncc(N4CCOCC4)c4ccccc34)CN2C(=O)[C@@H](NC(=O)OC(C)(C)C)[C@H](C)C1 [Compound 5443, tert-butyl ((2R,6S,7R,9R,13aS,14aR,16aS,Z)-14a-(((1-(fluoromethyl)cyclopropyl)sulfonyl)carbamoyl)-7,9-dimethyl-2-((4-morpholinoisoquinolin-1-yl)oxy)-5,16-dioxo-1,2,3,5,6,7,8,9,10,11,13a,14,14a,15,16,16a-hexadecahydrocyclopropa[e]pyrrolo[1,2-a][1,4]diazacyclopentadecin-6-yl)carbamate]	1.01 to 5 nM	0.51 to 1 nM
CC[C@@H]1C[C@H](C)CC/C=C\[C@@H]2C[C@@]2(C(=O)NS(=O)(=O)C2(CF)CC2)NC(=O)[C@@H]2C[C@@H](Oc3ncc(N4CCOCC4)c4ccccc34)CN2C(=O)[C@H]1NC(=O)OC(C)(C)C(F)(F)F [Compound 5445, 1,1,1-trifluoro-2-methylpropan-2-yl((2R,6S,7R,9R,13aS,14aR,16aS,Z)-7-ethyl-14a-(((1-(fluoromethyl)cyclopropyl)sulfonyl)carbamoyl)-9-methyl-2-((4-morpholinoisoquinolin-1-yl)oxy)-5,16-dioxo-1,2,3,5,6,7,8,9,10,11,13a,14,14a,15,16,16a-hexadecahydrocyclopropa[e]pyrrolo[1,2-a][1,4]diazacyclopentadecin-6-yl)carbamate]	1.01 to 5 nM	1.01 to 5 nM
CC[C@@H]1C[C@H](C)CC/C=C\[C@@H]2C[C@@]2(C(=O)NS(=O)(=O)C2(CF)CC2)NC(=O)[C@@H]2C[C@@H](Oc3ncc(N4CCOCC4)c4ccccc34)CN2C(=O)[C@H]1NC(=O)OC(C)(C)C(C)(F)F [Compound 5447, 3,3-difluoro-2-methylbutan-2-yl((2R,6S,7R,9R,13aS,14aR,16aS,Z)-7-ethyl-14a-(((1-(fluoromethyl)cyclopropyl)sulfonyl)carbamoyl)-9-methyl-2-((4-morpholinoisoquinolin-1-yl)oxy)-5,16-dioxo-1,2,3,5,6,7,8,9,10,11,13a,14,14a,15,16,16a-hexadecahydrocyclopropa[e]pyrrolo[1,2-a][1,4]diazacyclopentadecin-6-yl)carbamate]	1.01 to 5 nM	1.01 to 5 nM
C[C@@H]1CC/C=C\[C@@H]2C[C@@]2(C(=O)NS(=O)(=O)C2(CF)CC2)NC(=O)[C@@H]2C[C@@H](Oc3ncc(N4CCOCC4)c4ccccc34)CN2C(=O)[C@@H](NC(=O)OC(C)(C)C(F)(F)F)[C@H](C)C1 [Compound 5449, 1,1,1-trifluoro-2-methylpropan-2-yl((2R,6S,7R,9R,13aS,14aR,16aS,Z)-14a-(((1-(fluoromethyl)cyclopropyl)sulfonyl)carbamoyl)-7,9-dimethyl-2-((4-morpholinoisoquinolin-1-yl)oxy)-5,16-dioxo-1,2,3,5,6,7,8,9,10,11,13a,14,14a,15,16,16a-hexadecahydrocyclopropa[e]pyrrolo[1,2-a][1,4]diazacyclopentadecin-6-yl)carbamate]	1.01 to 5 nM	0.51 to 1 nM
C[C@@H]1CC/C=C\[C@@H]2C[C@@]2(C(=O)NS(=O)(=O)C2(CF)CC2)NC(=O)[C@@H]2C[C@@H](Oc3ncc(N4CCOCC4)c4ccccc34)CN2C(=O)[C@@H](NC(=O)OC(C)(C)C(C)(F)F)[C@H](C)C1 [Compound 5451, 3,3-difluoro-2-methylbutan-2-yl((2R,6S,7R,9R,13aS,14aR,16aS,Z)-14a-(((1-(fluoromethyl)cyclopropyl)sulfonyl)carbamoyl)-7,9-dimethyl-2-((4-morpholinoisoquinolin-1-yl)oxy)-5,16-dioxo-1,2,3,5,6,7,8,9,10,11,13a,14,14a,15,16,16a-hexadecahydrocyclopropa[e]pyrrolo[1,2-a][1,4]diazacyclopentadecin-6-yl)carbamate]	1.01 to 5 nM	1.01 to 5 nM
[2H]C([2H])([2H])C(OC(=O)N[C@@H]1C(=O)N2C[C@H](Oc3ncc(OC)c4ccc(F)cc34)C[C@H]2C(=O)N[C@]2(C(=O)NS(=O)(=O)C3(C)CC3)C[C@H]2/C=C\CC[C@@H](C)C[C@H]1CC)(C([2H])([2H])[2H])C(F)(F)F [Compound 5453]	1.01 to 5 nM	0.51 to 1 nM
CC[C@@H]1C[C@H](C)CC/C=C\[C@@H]2C[C@@]2(C(=O)NS(=O)(=O)C2(C)CC2)NC(=O)[C@@H]2C[C@@H](Oc3ncc(OC)c4ccc(F)cc34)CN2C(=O)[C@H]1NC(=O)OC(C)(C)C(C)(F)F [Compound 5455, 3,3-difluoro-2-methylbutan-2-yl((2R,6S,7R,9R,13aS,14aR,16aS,Z)-7-ethyl-2-((7-fluoro-4-methoxyisoquinolin-1-yl)oxy)-9-methyl-14a-(((1-methylcyclopropyl)sulfonyl)carbamoyl)-5,16-dioxo-1,2,3,5,6,7,8,9,10,11,13a,14,14a,15,16,16a-hexadecahydrocyclopropa[e]pyrrolo[1,2-a][1,4]diazacyclopentadecin-6-yl)carbamate]	1.01 to 5 nM	0.1 to 0.5 nM
CC[C@@H]1C[C@H](C)CC/C=C\[C@@H]2C[C@@]2(C(=O)NS(=O)(=O)C2(C)CC2)NC(=O)[C@@H]2C[C@@H](Oc3ncc(N4CCOCC4)c4ccccc34)CN2C(=O)[C@H]1NC(=O)OC(C)(C)C(C)(F)F [Compound 5457, 3,3-difluoro-2-methylbutan-2-yl((2R,6S,7R,9R,13aS,14aR,16aS,Z)-7-ethyl-9-methyl-14a-(((1-methylcyclopropyl)sulfonyl)carbamoyl)-2-((4-morpholinoisoquinolin-1-yl)oxy)-5,16-dioxo-1,2,3,5,6,7,8,9,10,11,13a,14,14a,15,16,16a-hexadecahydrocyclopropa[e]pyrrolo[1,2-a][1,4]diazacyclopentadecin-6-yl)carbamate]	1.01 to 5 nM	0.51 to 1 nM
C[C@@H]1CC/C=C\[C@@H]2C[C@@]2(C(=O)NS(=O)(=O)C2(C)CC2)NC(=O)[C@@H]2C[C@@H](Oc3ncc(N4CCOCC4)c4ccccc34)CN2C(=O)[C@@H](NC(=O)OC(C)(C)C(C)(F)F)[C@H](C)C1 [Compound 5459, 3,3-difluoro-2-methylbutan-2-yl((2R,6S,7R,9R,13aS,14aR,16aS,Z)-7,9-dimethyl-14a-(((1-methylcyclopropyl)sulfonyl)carbamoyl)-2-((4-morpholinoisoquinolin-1-yl)oxy)-5,16-dioxo-1,2,3,5,6,7,8,9,10,11,13a,14,14a,15,16,16a-hexadecahydrocyclopropa[e]pyrrolo[1,2-a][1,4]diazacyclopentadecin-6-yl)carbamate]	1.01 to 5 nM	1.01 to 5 nM
CC[C@@H]1C[C@H](C)CC/C=C\[C@@H]2C[C@@]2(C(=O)NS(=O)(=O)C2(CF)CC2)NC(=O)[C@@H]2C[C@@H](Oc3nccc4c5c(ccc34)OCCO5)CN2C(=O)[C@H]1NC(=O)OC(C)(C)C(C)(F)F [Compound 5461, 3,3-difluoro-2-methylbutan-2-yl((2R,6S,7R,9R,13aS,14aR,16aS,Z)-2-((2,3-dihydro-[1,4]dioxino[2,3-f]isoquinolin-7-yl)oxy)-7-ethyl-14a-(((1-(fluoromethyl)cyclopropyl)sulfonyl)carbamoyl)-9-methyl-5,16-dioxo-1,2,3,5,6,7,8,9,10,11,13a,14,14a,15,16,16a-hexadecahydrocyclopropa[e]pyrrolo[1,2-a][1,4]diazacyclopentadecin-6-yl)carbamate]	1.01 to 5 nM	1.01 to 5 nM
CC[C@@H]1C[C@H](C)CC/C=C\[C@@H]2C[C@@]2(C(=O)NS(=O)(=O)C2(CF)CC2)NC(=O)[C@@H]2C[C@@H](Oc3nccc4c5c(ccc34)N(C)CCO5)CN2C(=O)[C@H]1NC(=O)OC(C)(C)C(C)(F)F [Compound 5463, 3,3-difluoro-2-methylbutan-2-yl((2R,6S,7R,9R,13aS,14aR,16aS,Z)-7-ethyl-14a-(((1-(fluoromethyl)cyclopropyl)sulfonyl)carbamoyl)-9-methyl-2-((4-methyl-3,4-dihydro-2H-[1,4]oxazino[2,3-f]isoquinolin-7-yl)oxy)-5,16-dioxo-1,2,3,5,6,7,8,9,10,11,13a,14,14a,15,16,16a-hexadecahydrocyclopropa[e]pyrrolo[1,2-a][1,4]diazacyclopentadecin-6-yl)carbamate]	5.01 to 35 nM	5.01 to 35 nM
